Patent publication US6716596B2, “Agents for replacement of NAD+/NADH system in enzymatic reactions” (The Regents of the University of California, priority 2001, dated 2004)

Columns and labels:
[1] = molecular target: T1, horse liver alcohol dehydrogenase (HLADH) (Equus caballus, UniProt P00327); experiment: HLADH enzymatic chiral reduction of ketones with biomimic co-factor regeneration; assay type: biochemical
T1 construct: purchased Sigma
Procedure: FIG. 7 presents structures of ketone substrates 12-15 used for biomimic chiral synthesis of corresponding alcohols. Conversion of the substrates 12-15 to their corresponding alcohols are expressed in % yield, and TOF in d^−1 and S-enantiomer excess (ee) are also shown for each conversion. Corresponding values obtained with NAD^+ are given in parenthesis. The S-enantiomeric excess (ee) was determined by GLC with a modified β-cyclodextrin capillary column.
[Cp*Rh(bpy)(H2O)]OTf2 (1.9 mg, 2.61×10^−3 mmol), sodium formate (17.8 mg, 261.69×10^−3 mmol), NAD^+ (8.1 mg, 11.23×10^−3 mmol) and HLADH (10 units) were placed in a 10 mL Schlenk flask, and Schlenk techniques were followed to deoxygenate the solid mixture.
Under positive argon pressure, 5 mL of potassium phosphate buffer (100 mM, pH=7.02, deoxygenated) and carbonyl substrate (83.58×10^−3 mmol, deoxygenated) were added via syringe. The reaction flask was immediately securely capped with a glass-stopper and shaken with a shaker in 30° C. water-bath. The reaction was monitored by gas chromatography (GC), equipped with a β-cyclodextrin column (Supelco, β-DEX-225), and the products were identified by comparing the retention time with the corresponding authentic chiral samples and were confirmed by GC-MS. The enantiomeric excess of the products was determined directly by their relative area in the chromatogram. The progress of the reaction was obtained by mixing the reaction aliquot with an internal standard (cyclohexanol in phosphate buffer), and then calibrating the measured relative area in the chromatogram with their corresponding response factors. The reaction was monitored for 24 hours.
The same procedure as described in section A was followed, except that NAD^+ was substituted with any one of the biomimic compounds of the invention.

[2] = water solubility of biomimics

T1 sequence (P00327 2-375 limits assumed): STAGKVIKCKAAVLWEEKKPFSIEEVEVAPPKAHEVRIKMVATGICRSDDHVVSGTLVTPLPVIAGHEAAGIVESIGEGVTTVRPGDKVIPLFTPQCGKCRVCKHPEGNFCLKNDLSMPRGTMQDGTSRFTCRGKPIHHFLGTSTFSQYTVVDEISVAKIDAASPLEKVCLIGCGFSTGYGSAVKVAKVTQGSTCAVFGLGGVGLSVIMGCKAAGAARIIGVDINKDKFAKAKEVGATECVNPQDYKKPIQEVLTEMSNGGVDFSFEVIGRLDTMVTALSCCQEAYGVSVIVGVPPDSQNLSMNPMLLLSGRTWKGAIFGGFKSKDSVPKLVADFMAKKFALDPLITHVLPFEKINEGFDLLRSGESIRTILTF

| recognition by HLADH as hydride catalyst of the chiral conversion [1] | water solubility [2] | SMILES |
| --- | --- | --- |
| recognizes | completely water soluble | COP(=O)(O)OC[C@H]1O[C@@H](N2C=CCC(C(N)=O)=C2)[C@H](O)[C@@H]1O [Compound 7, β-1,4-dihydronicotinamide ribose-5′-methyl phosphate] |
|  | both water and organic solvent soluble | C=CC(=O)OCCOCCOCC(=O)[n+]1cccc(C(N)=O)c1.[Br-] [Compound 10, 1-(8-acryloyloxy-3,6-dioxaoctanoyl)-3-carbamoylpyridinium bromide] |
